Numbers after ± are expanded uncertainties.
Assay: cn = amount concentration of the nth substance listed, in mol/dm3
Settings: 101.3 kPa, Liquid; for viscosity: Falling or rolling sphere viscometry; for mass density: Vibrating tube method

`O=C([O-])[C@@H]1CCCN1.[K+]` [potassium L-prolinate] + O gave a viscosity (298.15 K, c1 = 0.5001) of 1.105 ± 0.18 mPa·s, a viscosity (298.15 K, c1 = 1) of 1.38 ± 0.22 mPa·s and a viscosity (298.15 K, c1 = 1.5) of 1.861 ± 0.3 mPa·s. For the same compound, the viscosity (298.15 K, c1 = 2) was 2.293 ± 0.37 mPa·s, the viscosity (298.15 K, c1 = 2.5) was 3.181 ± 0.51 mPa·s and the viscosity (298.15 K, c1 = 3) was 4.054 ± 0.65 mPa·s. For the same compound, the mass density (298.15 K, c1 = 0.5001) was 1026.6 ± 8 kg/m3, the mass density (298.15 K, c1 = 1) was 1054.7 ± 8 kg/m3 and the mass density (298.15 K, c1 = 1.5) was 1088 ± 8 kg/m3. For the same compound, the mass density (298.15 K, c1 = 2) was 1111.4 ± 8 kg/m3, the mass density (298.15 K, c1 = 2.5) was 1145.8 ± 8 kg/m3 and the mass density (298.15 K, c1 = 3) was 1166.9 ± 8 kg/m3. The viscosity (303.15 K, c1 = 0.5001) was 0.9857 ± 0.16 mPa·s, the viscosity (303.15 K, c1 = 1) was 1.232 ± 0.2 mPa·s and the viscosity (303.15 K, c1 = 1.5) was 1.642 ± 0.26 mPa·s. For the same compound, the viscosity (303.15 K, c1 = 2) was 2.028 ± 0.33 mPa·s, the viscosity (303.15 K, c1 = 2.5) was 2.755 ± 0.44 mPa·s and the viscosity (303.15 K, c1 = 3) was 3.491 ± 0.56 mPa·s. For the same compound, the mass density (303.15 K, c1 = 0.5001) was 1025.2 ± 8 kg/m3, the mass density (303.15 K, c1 = 1) was 1053 ± 8 kg/m3 and the mass density (303.15 K, c1 = 1.5) was 1086.4 ± 8 kg/m3. It also gave a mass density (303.15 K, c1 = 2) of 1109.2 ± 8 kg/m3, a mass density (303.15 K, c1 = 2.5) of 1143.2 ± 8 kg/m3 and a mass density (303.15 K, c1 = 3) of 1164.1 ± 8 kg/m3. For the same compound, the viscosity (308.15 K, c1 = 0.5001) was 0.8913 ± 0.14 mPa·s, the viscosity (308.15 K, c1 = 1) was 1.103 ± 0.18 mPa·s and the viscosity (308.15 K, c1 = 1.5) was 1.465 ± 0.23 mPa·s. It also gave a viscosity (308.15 K, c1 = 2) of 1.794 ± 0.29 mPa·s, a viscosity (308.15 K, c1 = 2.5) of 2.409 ± 0.39 mPa·s and a viscosity (308.15 K, c1 = 3) of 3.038 ± 0.49 mPa·s. It also gave a mass density (308.15 K, c1 = 0.5001) of 1023.5 ± 8 kg/m3, a mass density (308.15 K, c1 = 1) of 1051 ± 8 kg/m3 and a mass density (308.15 K, c1 = 1.5) of 1084.5 ± 8 kg/m3. The mass density (308.15 K, c1 = 2) was 1107 ± 8 kg/m3, the mass density (308.15 K, c1 = 2.5) was 1140.6 ± 8 kg/m3 and the mass density (308.15 K, c1 = 3) was 1161.3 ± 8 kg/m3. The viscosity (313.15 K, c1 = 0.5001) was 0.8086 ± 0.13 mPa·s, the viscosity (313.15 K, c1 = 1) was 0.9949 ± 0.16 mPa·s and the viscosity (313.15 K, c1 = 1.5) was 1.31 ± 0.21 mPa·s. For the same compound, the viscosity (313.15 K, c1 = 2) was 1.601 ± 0.26 mPa·s, the viscosity (313.15 K, c1 = 2.5) was 2.136 ± 0.34 mPa·s and the viscosity (313.15 K, c1 = 3) was 2.662 ± 0.43 mPa·s. For the same compound, the mass density (313.15 K, c1 = 0.5001) was 1021.6 ± 8 kg/m3, the mass density (313.15 K, c1 = 1) was 1049 ± 8 kg/m3 and the mass density (313.15 K, c1 = 1.5) was 1082.2 ± 8 kg/m3. The mass density (313.15 K, c1 = 2) was 1104.7 ± 8 kg/m3, the mass density (313.15 K, c1 = 2.5) was 1137.9 ± 8 kg/m3 and the mass density (313.15 K, c1 = 3) was 1158.4 ± 8 kg/m3. For the same compound, the viscosity (318.15 K, c1 = 0.5001) was 0.7351 ± 0.12 mPa·s, the viscosity (318.15 K, c1 = 1) was 0.9035 ± 0.14 mPa·s and the viscosity (318.15 K, c1 = 1.5) was 1.2 ± 0.19 mPa·s. For the same compound, the viscosity (318.15 K, c1 = 2) was 1.439 ± 0.23 mPa·s, the viscosity (318.15 K, c1 = 2.5) was 1.903 ± 0.31 mPa·s and the viscosity (318.15 K, c1 = 3) was 2.354 ± 0.38 mPa·s. For the same compound, the mass density (318.15 K, c1 = 0.5001) was 1019.6 ± 8 kg/m3, the mass density (318.15 K, c1 = 1) was 1046.8 ± 8 kg/m3 and the mass density (318.15 K, c1 = 1.5) was 1081.2 ± 8 kg/m3. It also gave a mass density (318.15 K, c1 = 2) of 1102.5 ± 8 kg/m3, a mass density (318.15 K, c1 = 2.5) of 1135.1 ± 8 kg/m3 and a mass density (318.15 K, c1 = 3) of 1155.5 ± 8 kg/m3. The viscosity (323.15 K, c1 = 0.5001) was 0.6741 ± 0.11 mPa·s, the viscosity (323.15 K, c1 = 1) was 0.8251 ± 0.13 mPa·s and the viscosity (323.15 K, c1 = 1.5) was 1.085 ± 0.17 mPa·s. For the same compound, the viscosity (323.15 K, c1 = 2) was 1.296 ± 0.21 mPa·s, the viscosity (323.15 K, c1 = 2.5) was 1.707 ± 0.27 mPa·s and the viscosity (323.15 K, c1 = 3) was 2.102 ± 0.34 mPa·s. The mass density (323.15 K, c1 = 0.5001) was 1017.6 ± 8 kg/m3, the mass density (323.15 K, c1 = 1) was 1044.5 ± 8 kg/m3 and the mass density (323.15 K, c1 = 1.5) was 1078.8 ± 8 kg/m3. The mass density (323.15 K, c1 = 2) was 1100.4 ± 8 kg/m3, the mass density (323.15 K, c1 = 2.5) was 1132.2 ± 8 kg/m3 and the mass density (323.15 K, c1 = 3) was 1152.5 ± 8 kg/m3. The viscosity (328.15 K, c1 = 0.5001) was 0.6219 ± 0.1 mPa·s, the viscosity (328.15 K, c1 = 1) was 0.7569 ± 0.12 mPa·s and the viscosity (328.15 K, c1 = 1.5) was 0.9922 ± 0.16 mPa·s. The viscosity (328.15 K, c1 = 2) was 1.196 ± 0.19 mPa·s, the viscosity (328.15 K, c1 = 2.5) was 1.541 ± 0.25 mPa·s and the viscosity (328.15 K, c1 = 3) was 1.887 ± 0.3 mPa·s. For the same compound, the mass density (328.15 K, c1 = 0.5001) was 1015.2 ± 8 kg/m3, the mass density (328.15 K, c1 = 1) was 1042.2 ± 8 kg/m3 and the mass density (328.15 K, c1 = 1.5) was 1076.6 ± 8 kg/m3. The mass density (328.15 K, c1 = 2) was 1098.5 ± 8 kg/m3, the mass density (328.15 K, c1 = 2.5) was 1129.2 ± 8 kg/m3 and the mass density (328.15 K, c1 = 3) was 1149.4 ± 8 kg/m3. For the same compound, the viscosity (333.15 K, c1 = 0.5001) was 0.5764 ± 0.092 mPa·s, the viscosity (333.15 K, c1 = 1) was 0.7002 ± 0.11 mPa·s and the viscosity (333.15 K, c1 = 1.5) was 0.9175 ± 0.15 mPa·s. The viscosity (333.15 K, c1 = 2) was 1.093 ± 0.18 mPa·s, the viscosity (333.15 K, c1 = 2.5) was 1.4 ± 0.22 mPa·s and the viscosity (333.15 K, c1 = 3) was 1.704 ± 0.27 mPa·s. It also gave a mass density (333.15 K, c1 = 0.5001) of 1012.8 ± 8 kg/m3, a mass density (333.15 K, c1 = 1) of 1039.9 ± 8 kg/m3 and a mass density (333.15 K, c1 = 1.5) of 1074.7 ± 8 kg/m3. For the same compound, the mass density (333.15 K, c1 = 2) was 1095.8 ± 8 kg/m3, the mass density (333.15 K, c1 = 2.5) was 1126.2 ± 8 kg/m3 and the mass density (333.15 K, c1 = 3) was 1146.3 ± 8 kg/m3. The viscosity (338.15 K, c1 = 0.5001) was 0.5373 ± 0.086 mPa·s, the viscosity (338.15 K, c1 = 1) was 0.6493 ± 0.1 mPa·s and the viscosity (338.15 K, c1 = 1.5) was 0.8552 ± 0.14 mPa·s. It also gave a viscosity (338.15 K, c1 = 2) of 1.009 ± 0.16 mPa·s, a viscosity (338.15 K, c1 = 2.5) of 1.278 ± 0.2 mPa·s and a viscosity (338.15 K, c1 = 3) of 1.549 ± 0.25 mPa·s. It also gave a mass density (338.15 K, c1 = 0.5001) of 1010.4 ± 8 kg/m3, a mass density (338.15 K, c1 = 1) of 1037.4 ± 8 kg/m3 and a mass density (338.15 K, c1 = 1.5) of 1073.7 ± 8 kg/m3. It also gave a mass density (338.15 K, c1 = 2) of 1093.6 ± 8 kg/m3, a mass density (338.15 K, c1 = 2.5) of 1123 ± 8 kg/m3 and a mass density (338.15 K, c1 = 3) of 1143.1 ± 8 kg/m3. For the same compound, the viscosity (343.15 K, c1 = 0.5001) was 0.5039 ± 0.081 mPa·s, the viscosity (343.15 K, c1 = 1) was 0.608 ± 0.097 mPa·s and the viscosity (343.15 K, c1 = 1.5) was 0.7966 ± 0.13 mPa·s. For the same compound, the viscosity (343.15 K, c1 = 2) was 0.9587 ± 0.15 mPa·s, the viscosity (343.15 K, c1 = 2.5) was 1.173 ± 0.19 mPa·s and the viscosity (343.15 K, c1 = 3) was 1.414 ± 0.23 mPa·s. It also gave a mass density (343.15 K, c1 = 0.5001) of 1008 ± 8 kg/m3, a mass density (343.15 K, c1 = 1) of 1035.5 ± 8 kg/m3 and a mass density (343.15 K, c1 = 1.5) of 1071.9 ± 8 kg/m3. It also gave a mass density (343.15 K, c1 = 2) of 1094.3 ± 8 kg/m3, a mass density (343.15 K, c1 = 2.5) of 1119.9 ± 8 kg/m3 and a mass density (343.15 K, c1 = 3) of 1139.8 ± 8 kg/m3. The viscosity (348.15 K, c1 = 0.5001) was 0.4733 ± 0.076 mPa·s, the viscosity (348.15 K, c1 = 1) was 0.5792 ± 0.093 mPa·s and the viscosity (348.15 K, c1 = 1.5) was 0.7486 ± 0.12 mPa·s. For the same compound, the viscosity (348.15 K, c1 = 2) was 0.8972 ± 0.14 mPa·s, the viscosity (348.15 K, c1 = 2.5) was 1.082 ± 0.17 mPa·s and the viscosity (348.15 K, c1 = 3) was 1.299 ± 0.21 mPa·s. The mass density (348.15 K, c1 = 0.5001) was 1005.6 ± 8 kg/m3, the mass density (348.15 K, c1 = 1) was 1035.7 ± 8 kg/m3 and the mass density (348.15 K, c1 = 1.5) was 1070.5 ± 8 kg/m3. It also gave a mass density (348.15 K, c1 = 2) of 1092.4 ± 8 kg/m3, a mass density (348.15 K, c1 = 2.5) of 1116.6 ± 8 kg/m3 and a mass density (348.15 K, c1 = 3) of 1136.5 ± 8 kg/m3.
